Test results from US11906523B2, “Signaling conjugates and methods of use” (VENTANA MEDICAL SYSTEMS, INC., priority 2012, dated 2024).

Experiments:
[1] = UV-Vis absorbance spectra of signaling conjugates and chromophores; format: physicochemical
Text: The wavelength at which the maximum fraction of light is absorbed by a substance is referred to as λmax. Because this wavelength is absorbed to the greatest extent, it is typically referred to as the absorbance wavelength. […] While λmax designates the wavelength of maximum absorption, the FWHM designates the breadth of the spectral absorbance.
Trace A corresponds to the signaling conjugate used for FIG. 15(A) and trace B corresponds to the signaling conjugated used for FIG. 15(B); note that each signaling conjugate was analyzed with spectrometry in solution prior to staining and on the slide subsequent to having detected the HER2 (the dashed traces representing the spectra obtained on the tissue).

[2] = UV-Vis spectra of fast red and fast blue; format: physicochemical; conditions: ethyl acetate solutions, FIG. 8(B)
Text: While providing a range of new colors for the recognition of targets within biological samples is useful alone, the presently disclosed signaling conjugates are particularly useful in multiplexed assays, as well as assays using translocation probes. FIG. 8(A) is a photomicrograph of a dual stain of two gene probes on section of lung tissue testing for ALK rearrangements associated with non-small cell lung cancer. FIG. 8(B) illustrates UV-Vis spectra of fast red and fast blue in ethyl acetate solutions. The 3′ probe was detected using fast red and the 5′ probe was detected using fast blue. FIGS. 9(A) and 9(B) illustrate the traces of FIG. 8(B) separately. […] Comparing this range to the color wheel, the expected color corresponding to the spectral absorption characteristic would be either red or orange. The range of absorption is so large it essentially covers all of those wavelengths one would expect to result in a red or an orange color. […] Again, referring to the color wheel in FIG. 6(A), the absorption from 525-625 nm covers nearly half of the color wheel with blue, indigo, and violet being complementary.

[3] = absorption spectrum of signaling conjugate

## CN(C)c1ccc2c(-c3ccc(C(=O)NCCc4ccc(O)cc4)cc3C(=O)[O-])c3ccc(N(C)C)cc3[o+]c2c1 [5-TAMRA-tyramide conjugate]
[1]; [3]
  full width of the peak at the half maximum absorbance (FWHM): approximately 40 nm
  λmax: 552 nm

## O=C([O-])C1=NN(c2ccc(S(=O)(=O)[O-])cc2)C(=O)C1N=Nc1ccc(S(=O)(=O)[O-])cc1.[Na+].[Na+].[Na+] (stereo not shown) [Tartrazine]
[1]; diazo chromophore moiety itself
  λmax: about 427 nm

## Fast blue
[2]
  strong absorption wavelength range: 525-625 nm
